Measurements from article PMC6128713 (Saudi Pharmaceutical Journal : SPJ, 2018).
Like-named read-outs stand apart in the source and are kept apart here.

Legend:
[1] = test system: glutamate-induced 45Ca2+ uptake into synaptosomes of rat brain cortex; assay: Effect on glutamate-induced 45Ca2+ uptake into synaptosomes of rat brain cortex; format: biochemical, Wistar rats; settings: for Percentage 45Ca2+ of Control (Control – 100%): 200 μM glutamate, 5 min, 37 °C
[2] = format: physicochemical

| Compound | Percentage 45Ca2+ of Control (Control – 100%) ([1]; compound 0.1 μM) [%] | Percentage 45Ca2+ of Control (Control – 100%) ([1]; compound 0.5 μM) [%] | Percentage 45Ca2+ of Control (Control – 100%) ([1]; compound 1 μM) [%] | Percentage 45Ca2+ of Control (Control – 100%) ([1]; compound 5 μM) [%] | Percentage 45Ca2+ of Control (Control – 100%) ([1]; compound 10 μM) [%] | Percentage 45Ca2+ of Control (Control – 100%) ([1]; compound 50 μM) [%] | Percentage 45Ca2+ of Control (Control – 100%) ([1]; compound 100 μM) [%] | mole fraction solubility (x) ([2]; 1-octanol, 293.15 K) [x · 10^4] | A, parameter of the correlation equation lnx=A-B/T ([2]; 1-octanol, 293.15–313.15 K) | B, parameter of the correlation equation lnx=A-B/T ([2]; 1-octanol, 293.15–313.15 K) | mole fraction solubility (x) ([2]; 1-octanol, 298.15 K) [x · 10^4] | ΔGsol0, standard molar dissolution Gibbs energy ([2]; 1-octanol, 298.15 K) [kcal/mol] | ΔHsol0, standard molar dissolution enthalpy ([2]; 1-octanol, 298.15 K) [kcal/mol] | ΔSsol0, standard molar dissolution entropy ([2]; 1-octanol, 298.15 K) [J/mol⋅K] | mole fraction solubility (x) ([2]; 1-octanol, 303.15 K) [x · 10^4] | mole fraction solubility (x) ([2]; 1-octanol, 308.15 K) [x · 10^4] | mole fraction solubility (x) ([2]; 1-octanol, 313.15 K) [x · 10^4] | mole fraction solubility (x) ([2]; Buffer pH 7.4, 293.15 K) [x · 10^6] | A, parameter of the correlation equation lnx=A-B/T ([2]; Buffer pH 7.4, 293.15–313.15 K) | B, parameter of the correlation equation lnx=A-B/T ([2]; Buffer pH 7.4, 293.15–313.15 K) | other results |
| --- | --- | --- | --- | --- | --- | --- | --- | --- | --- | --- | --- | --- | --- | --- | --- | --- | --- | --- | --- | --- | --- |
| CN1CCc2c(c3ccccc3n2CCc2n[nH]c(=S)n2C)C1 [Compound I, 4-Methyl-5-[2-(2-methyl-1,2,3,4-tetrahydropyrido[4,3-b]indol-5-yl)ethyl]-2,4-dihydro[1,2,4]triazole-3-thione] | 90.5 ± 5.1 | 94.8 ± 3.0 | 94.5 ± 11.8 | 80.0 ± 3.0 | 69.9 ± 4.4 | 90.0 ± 6.1 | 104.2 ± 12.8 | 2.16 | 5.83 ± 0.11 | 4179 ± 45 | 2.74 | 4.85 | 8.29 | 69.9 | 3.48 | 4.28 | 5.40 | 1.69 | −7.76 ± 0.04 | 1649 ± 12 | effect on glutamate-induced calcium ion uptake, in words ([1]; concentration of 0.1–1 μM): did not affect; effect on glutamate-induced calcium ion uptake, in words ([1]; concentrations of 5–50 μM): inhibited calcium ion uptake; mole fraction solubility (x) ([2]; Buffer pH 7.4, 298.15 K): 1.86 x · 10^6; ΔGsol0, standard molar dissolution Gibbs energy ([2]; Buffer pH 7.4, 298.15 K): 7.82 kcal/mol; ΔHsol0, standard molar dissolution enthalpy ([2]; Buffer pH 7.4, 298.15 K): 3.27 kcal/mol; ΔSsol0, standard molar dissolution entropy ([2]; Buffer pH 7.4, 298.15 K): -63.73 J/mol⋅K; mole fraction solubility (x) ([2]; Buffer pH 7.4, 303.15 K): 2.04 x · 10^6; mole fraction solubility (x) ([2]; Buffer pH 7.4, 308.15 K): 2.23 x · 10^6; mole fraction solubility (x) ([2]; Buffer pH 7.4, 313.15 K): 2.42 x · 10^6; mole fraction solubility (x) ([2]; Hexane, 293.15 K): 7.96 x · 10^6; A, parameter of the correlation equation lnx=A-B/T ([2]; Hexane, 293.15–313.15 K): −1.25 ± 0.18; B, parameter of the correlation equation lnx=A-B/T ([2]; Hexane, 293.15–313.15 K): 3073 ± 39; mole fraction solubility (x) ([2]; Hexane, 298.15 K): 9.41 x · 10^6; ΔGsol0, standard molar dissolution Gibbs energy ([2]; Hexane, 298.15 K): 6.84 kcal/mol; ΔHsol0, standard molar dissolution enthalpy ([2]; Hexane, 298.15 K): 6.12 kcal/mol; ΔSsol0, standard molar dissolution entropy ([2]; Hexane, 298.15 K): -6.7 J/mol⋅K; mole fraction solubility (x) ([2]; Hexane, 303.15 K): 11.41 x · 10^6; mole fraction solubility (x) ([2]; Hexane, 308.15 K): 13.26 x · 10^6; mole fraction solubility (x) ([2]; Hexane, 313.15 K): 15.50 x · 10^6; increase of solubility in hexane over buffer solution ([2]; standard temperature): 5 times |
| Cc1ccc2c(c1)c1c(n2CCc2n[nH]c(=S)n2C)CCN(C)C1 [Compound II, 5-[2-(2,8-Dimethyl-1,2,3,4-tetrahydropyrido[4,3-b]indol-5-yl)ethyl]-4-methyl-2,4-dihydro [1,2,4] triazole-3-thione] | 85.5 ± 3.9 | 102.6 ± 3.6 | 93.6 ± 3.6 | 113.1 ± 7.6 | 109.7 ± 7.5 | 118.6 ± 2.7 | 127.1 ± 17.1 | 0.89 | 3.95 ± 0.23 | 3889 ± 69 | 1.13 | 5.38 | 7.72 | 32.9 | 1.39 | 1.68 | 2.11 | 1.64 | −2.90 ± 0.22 | 3054 ± 67 | Percentage 45Ca2+ of Control (Control – 100%) ([1]; compound 0.01 μM): 84.7 ± 1.2%; inhibition of glutamate-induced uptake of calcium ions ([1]; concentration of 0.01–0.1 μM): ~15%; overall inhibiting activity on calcium ion uptake, in words ([1]; whole concentration range 0.01–100 μM): potentiates the uptake at high concentrations; mole fraction solubility (x) ([2]; Buffer pH 7.4, 298.15 K): 1.96 x · 10^6; ΔGsol0, standard molar dissolution Gibbs energy ([2]; Buffer pH 7.4, 298.15 K): 7.79 kcal/mol; ΔHsol0, standard molar dissolution enthalpy ([2]; Buffer pH 7.4, 298.15 K): 6.07 kcal/mol; ΔSsol0, standard molar dissolution entropy ([2]; Buffer pH 7.4, 298.15 K): -24.2 J/mol⋅K; mole fraction solubility (x) ([2]; Buffer pH 7.4, 303.15 K): 2.27 x · 10^6; mole fraction solubility (x) ([2]; Buffer pH 7.4, 308.15 K): 2.70 x · 10^6; mole fraction solubility (x) ([2]; Buffer pH 7.4, 313.15 K): 3.21 x · 10^6; mole fraction solubility (x) ([2]; Hexane, 293.15 K): 1.42 x · 10^5; A, parameter of the correlation equation lnx=A-B/T ([2]; Hexane, 293.15–313.15 K): −1.39 ± 0.17; B, parameter of the correlation equation lnx=A-B/T ([2]; Hexane, 293.15–313.15 K): 2989 ± 49; mole fraction solubility (x) ([2]; Hexane, 298.15 K): 1.70 x · 10^5; ΔGsol0, standard molar dissolution Gibbs energy ([2]; Hexane, 298.15 K): 6.5 kcal/mol; ΔHsol0, standard molar dissolution enthalpy ([2]; Hexane, 298.15 K): 5.95 kcal/mol; ΔSsol0, standard molar dissolution entropy ([2]; Hexane, 298.15 K): -7.7 J/mol⋅K; mole fraction solubility (x) ([2]; Hexane, 303.15 K): 2.02 x · 10^5; mole fraction solubility (x) ([2]; Hexane, 308.15 K): 2.35 x · 10^5; mole fraction solubility (x) ([2]; Hexane, 313.15 K): 2.72 x · 10^5 |
